Target: T1, RANTES/MIP-1α chemokine receptor (CCR1) in THP-1 cell membranes (Homo sapiens, UniProt P32246)
T1 construct: Membranes were prepared from THP-1 cells (ATCC #TIB202); host or cells: THP-1 cells (membrane preparation)
T1 sequence (P32246 1-355): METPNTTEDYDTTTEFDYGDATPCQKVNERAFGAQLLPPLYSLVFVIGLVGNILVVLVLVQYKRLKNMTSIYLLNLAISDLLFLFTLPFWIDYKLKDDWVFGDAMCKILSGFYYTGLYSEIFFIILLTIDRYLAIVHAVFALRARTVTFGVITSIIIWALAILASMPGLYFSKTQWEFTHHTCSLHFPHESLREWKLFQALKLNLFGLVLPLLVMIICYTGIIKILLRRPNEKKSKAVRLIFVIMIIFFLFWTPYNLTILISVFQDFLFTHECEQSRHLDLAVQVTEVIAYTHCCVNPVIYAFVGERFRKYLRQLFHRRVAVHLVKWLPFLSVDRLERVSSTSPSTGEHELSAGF
Test: Receptor binding assay: 125I-RANTES or 125I-MIP-1α binding to THP-1 cell membranes
Details: for IC50: inhibitor concentration required for 50% inhibition of specific binding, 125I-RANTES or 125I-MIP-1α as ligand, THP-1 cell membranes, read-out: IC50; for relative activity of resolved enantiomers: enantiomers resolved from the racemate on ChiralPak AD, test not named

Row | Molecule | IC50 [µM] | relative activity of resolved enantiomers
1 | 4-(4-Cyanophenyl)-1-[3-(5,11-dihydro-7-methoxy[1]benzoxepino[2,3-b]pyridin-5-ylidene)propyl]piperidin-4-ol [Example 141] | < 1 | –
2 | 4-(5-Chloro-2-keto-1-benzimidazolinyl)-1-[3-(5,11-dihydro-7-methoxy[1]benzoxepino[2,3-b]pyridin-5-ylidene)propyl]piperidine [Example 85] | < 1 | –
3 | 4-(5-Chloropyridin-2-yl)-1-[3-(5,11-dihydro-7-methoxy[1]benzoxepino[2,3-b]pyridin-5-ylidene)propyl]piperidin-4-ol [Example 83] | < 1000 | –
4 | 4-(7-Chloro-1,2-benzisoxazol-3-yl)-1-[3-(5,11-dihydro-7-methoxy[1]benzoxepino[2,3-b]pyridin-5-ylidene)propyl]piperidine [Example 185] | < 1000 | –
5 | 4-(7-Chloroindol-3-yl)-1-[3-(5,11-dihydro-7-methoxy[1]benzoxepino[2,3-b]pyridin-5-ylidene)propyl]-1,2,3,6-tetrahydropyridine [Example 195] | < 10 | –
6 | 4-(7-Chloroindol-3-yl)-1-[3-(5,11-dihydro-7-methoxy[1]benzoxepino[2,3-b]pyridin-5-ylidene)propyl]piperidine [Example 186] | < 1 | –
7 | 4-(p-Chloroanilino)-1-[3-(5,11-dihydro-7-methoxy[1]benzoxepino[2,3-b]pyridin-5-ylidene)propyl]piperidine [Example 86] | > 10 | –
8 | 4-Azido-4-(4-chlorophenyl)-1-[3-(5,11-dihydro-7-methoxy[1]benzoxepino[2,3-b]pyridin-5-ylidene)propyl]piperidine [Example 187] | < 1 | –
9 | 4-Benzyl-1-[3-(5,11-dihydro-7-methoxy[1]benzoxepino[2,3-b]pyridin-5-ylidene)propyl]piperidin-4-ol [Example 62] | < 10 | –
10 | 4-Cyano-1-[3-(5,11-dihydro-7-methoxy[1]benzoxepino[2,3-b]pyridin-5-ylidene)propyl]-4-phenylpiperidine [Example 63] | < 10 | –
11 | 5-Chloro-1′-[3-(5,11-dihydro-7-(2-methoxyethyl)oxy[1]benzoxepino[2,3-b]pyridin-5-ylidene)propyl]spiro[isobenzofuran-1(3H), 4′-piperidine] [Example 197] | < 1 | –
12 | 5-Chloro-1′-[3-(5,11-dihydro-7-methoxy[1]benzoxepino[2,3-b]pyridin-5-ylidene)propyl]spiro[isobenzofuran-1(3H), 4′-piperidine] [Example 91] | < 1 | –
13 | 8-[3-(5,11-Dihydro-7-methoxy[1]benzoxepino[2,3-b]pyridin-5-ylidene)propyl]-1-phenyl-1,3,8-triazaspiro[4,5]decan-4-one [Example 69] | < 1 | –
14 | CC(C)(O)c1ccc2c(c1)C(=CCCN1CC[C@](O)(c3ccc(Cl)cc3)[C@H](C#N)C1)c1cccnc1CO2 (relative stereo) [Example 479, Trans-4-(4-Chloro-phenyl)-4-hydroxy-1-{3-[7-(1-hydroxyl-1-methyl-ethyl)-11H-10-oxa-1-aza-dibenzo[a,d]cyclohepten-5-ylidene]-propyl}-piperidin-3-carbonitrile] | < 1 | –
15 | CC(C)(O)c1ccc2c(c1)C(=CCCN1CC[C@@](O)(c3ccc(Cl)cc3)[C@H](C#N)C1)c1cccnc1CO2 (relative stereo) [Example 480, Cis-4-(4-Chloro-phenyl)-4-hydroxy-1-{3-[7-(1-hydroxyl-1-methyl-ethyl)-11H-10-oxa-1-aza-dibenzo[a,d]cyclohepten-5-ylidene]-propyl}-piperidin-3-carbonitrile] | < 1 | –
16 | CC(C)(O)c1ccc2c(c1)C(=CCCN1CCC(O)(c3ccc(Cl)cc3)C(C)(CO)C1)c1cccnc1CO2 (single isomer, unassigned) [Example 483-1, 4-(4-Chloro-phenyl)-3-hydroxymethyl-1-{3-[7-(hydroxyl-1-methyl-ethyl)-11H-10-oxa-1-aza-dibenzo[a,d]cyclohepten-5-ylidene]-propyl}-3-methyl-piperidine-4-ol] | < 1 | more active enantiomer
17 | CC(C)(O)c1ccc2c(c1)C(=CCCN1CCC(O)(c3ccc(Cl)cc3)C(C)(CO)C1)c1cccnc1CO2 (single isomer, unassigned) [Example 483-2, 4-(4-Chloro-phenyl)-3-hydroxymethyl-1-{3-[7-(hydroxyl-1-methyl-ethyl)-11H-10-oxa-1-aza-dibenzo[a,d]cyclohepten-5-ylidene]-propyl}-3-methyl-piperidine-4-ol] | < 10 | less active enantiomer

Row | Molecule | IC50 [µM] | relative activity of resolved enantiomers
18 | CCN(Cc1ccc(Cl)cc1)CC1CCN(CCC=C2c3cc(C(C)(C)O)ccc3OCc3ncccc32)C1 (stereo in doubt) [Example 526, (R)-2-{5-[3-(3-{[(4-Chloro-benzyl)-ethyl-amino]-methyl}-pyrrolidin-1-yl)-propylidene]5,11-dihydro-10-oxa-1-aza-dibenzo[a,d]cyclohepten-7-yl}-propan-2-ol] | < 1 | –
19 | OC1(c2ccc(Cl)cc2)CCN(CCC=C2c3ccccc3CCc3ccccc32)CC1 [Example 1, 4-(4-Chlorophenyl)-1-[3-(10,11-dihydro-5H-dibenzo[a,d]cycloheptene-5-ylidene)propyl]piperidin-4-ol] | < 1 | –
20 | OC1(c2ccc(Cl)cc2)CCN(CCC=C2c3ccccc3COc3ccccc32)CC1 [Example 2, 4-(4-Chlorophenyl)-1-[3-(6,11-dihydrodibenz[b,e]oxepin-11-ylidene)propyl]piperidin-4-ol] | < 1 | –
21 | OC1(c2ccc(Cl)cc2)CCN(CCC=C2c3ccccc3CSc3ccccc32)CC1 [Example 8, 4-(4-Chlorophenyl)-1-[3-(6,11-dihydro-dibenz[b,e]thiepin-11-ylidene)propyl]piperidin-4-ol] | < 1 | –
22 | O=C1c2ccccc2C(=CCCN2CCC(O)(c3ccc(Cl)cc3)CC2)c2ccccc2N1Cc1ccccc1 [Example 12, 1-[3-(5-Benzyl-6,11-dihydro-6-oxo-5H-dibenz[b,e]azepin-11-ylidene)propyl]-4-(4-chlorophenyl)-piperidin-4-ol] | < 1 | –
23 | O=C(O)CN1C(=O)c2ccccc2C(=CCCN2CCC(O)(c3ccc(Cl)cc3)CC2)c2ccccc21 [Example 17, 1-[3-(5-Carboxymethyl-6,11-dihydro-6-oxo-5H-dibenz[b,e]azepin-11-ylidene)propyl]-4-(4-chlorophenyl)-piperidin-4-ol] | < 10 | –
24 | CCOC(=O)CN1C(=O)c2ccccc2C(=CCCN2CCC(O)(c3ccc(Cl)cc3)CC2)c2ccccc21 [Example 18, 4-(4-Chlorophenyl)-1-[3-(6,11-dihydro-5-ethoxycarbonymethyl-6-oxo-5H-dibenz[b,e]azepin-11-ylidene)propyl]piperidin-4-ol] | < 1 | –
25 | CN1C(=O)c2ccccc2C(=CCCN2CCC(O)(c3ccc(Cl)cc3)CC2)c2ccccc21 [Example 19, 4-(4-Chlorophenyl)-1-[3-(6,11-dihydro-5-methyl-6-oxo-5H-dibenz[b,e]azepin-11-ylidene)propyl]piperidin-4-ol] | < 1 | –
26 | OC1(c2ccc(Cl)cc2)CCN(CCC=C2c3ccccc3C=Cc3ccccc32)CC1 [Example 21, 4-(4-Chlorophenyl)-1-[3-(5H-dibenzo[a,d]cycloheptene-5-ylidene)propyl]piperidin-4-ol] | < 1 | –
27 | COC(=O)c1ccc2c(c1)C(=CCCN1CCC(O)(c3ccc(Cl)cc3)CC1)c1ccccc1CO2 [Example 22, 4-(4-Chlorophenyl)-1-[3-(6,11-dihydro-2-methoxycarbonyldibenz[b,e]oxepin-11-ylidene)propyl]piperidin-4-ol] | < 1 | –
28 | CCCCOC(=O)c1ccc2c(c1)C(=CCCN1CCC(O)(c3ccc(Cl)cc3)CC1)c1ccccc1CO2 [Example 23, 1-[3-(2-Butoxycarbonyl-6,11-dihydrodibenz[b,e]oxepin-11-ylidene)propyl]-4-(4-chlorophenyl)piperidin-4-ol] | < 1 | –
29 | O=C(O)c1ccc2c(c1)C(=CCCN1CCC(O)(c3ccc(Cl)cc3)CC1)c1ccccc1CO2 [Example 24, 1-[3-(2-Carboxyl-6,11-dihydrodibenz[b,e]oxepin-11-ylidene)propyl]-4-(4-chlorophenyl)piperidin-4-ol] | < 10 | –
30 | CN(C)C(=O)c1ccc2c(c1)C(=CCCN1CCC(O)(c3ccc(Cl)cc3)CC1)c1ccccc1CO2 [Example 25, 4-(4-Chlorophenyl)-1-[3-(6,11-dihydro-2-dimethylaminocarbonyldibenz[b,e]oxepin-11-ylidene)propyl]piperidin-4-ol] | < 1 | –
31 | OCc1ccc2c(c1)C(=CCCN1CCC(O)(c3ccc(Cl)cc3)CC1)c1ccccc1CO2 [Example 26, 4-(4-Chlorophenyl)-1-[3-(6,11-dihydro-2-hydroxymethyldibenz[b,e]oxepin-11-ylidene)propyl]piperidin-4-ol] | < 1 | –
32 | CC(C)(O)c1ccc2c(c1)C(=CCCN1CCC(O)(c3ccc(Cl)cc3)CC1)c1ccccc1CO2 [Example 27, 4-(4-Chlorophenyl)-1-[3-(6,11-dihydro-2-(1-hydroxy-1-methyl)ethyldibenz[b,e]oxepin-11-ylidene)propyl]piperidin-4-ol] | < 1 | –
33 | N#Cc1ccc2c(c1)C(=CCCN1CCC(O)(c3ccc(Cl)cc3)CC1)c1ccccc1CO2 [Example 28, 4-(4-Chlorophenyl)-1-[3-(2-cyano-6,11-dihydrodibenz[b,e]oxepin-11-ylidene)propyl]piperidin-4-ol] | < 1 | –
